Read-outs that look alike come from different tables or passages of the source. Marks after values point to notes of the source that are not given here.
Columns and labels:
patients with vitiligo [1] = assay: Retrospective case series of vitiligo patients treated with tofacitinib: BSA of depigmentation / repigmentation; assay type: in vivo, human; parameters: key to Responder Status: R, responder; NR, non-responder
Description: (§3) This study is a retrospective case series of 10 patients seen between July 2014 and January 2017. […] Clinical and demographic information, including biological sex, age, disease duration and course, medical history, family history, and prior treatments were collected. Before initiating tofacitinib, all patients underwent baseline laboratory evaluation including comprehensive metabolic panel, complete blood cell count with differential, fasting lipid panel, QuantiFERON-TB Gold® ([…] Limited, Melbourne, Australia), and screening for HIV and hepatitis B and C. Body surface area (BSA) of depigmentation was assessed prior to and at the end of treatment. Serial laboratory monitoring, physical exams, and review of systems were used to monitor for adverse events.

[2] = tested on: melanocyte-specific T cells (HLA pentamer positive); settings: Patient 1; after treatment vs baseline
Description: Cells were blocked with Human TruStain and incubated with an antibody cocktail for 30 minutes at 4° C. Anti-human CD45 (2D1) and CD8 (SK1) were used at 1:20 dilution. Anti-human CD3 (OKT3) was used at 1:200 dilution (BioLegend) and Fixable Viability Dye eFluor 455UV at 1:1000 (Ebioscience).

CD8^+ T cells = assay: Suction blister sampling, flow cytometry of CD8+ T cells in blister fluid; assay type: in vivo, human; settings: Patient 1; after 10 months of tofacitinib vs baseline; responding, non-responding and non-lesional sites
Description: The Negative Pressure Instrument Model NP-4 (Electronic Diversities®, Finksburg, MD) was used to induce suction blisters (1 cm in diameter). Blisters formed at a pressure between 10-15 mm Hg negative pressure and at a constant temperature of 40° C. Once blisters formed, the blister fluid was aspirated 135 through the roof using a 1 mL insulin syringe. Cells in the blister fluid were pelleted at 330×g for 10 minutes and prepared for flow cytometry. […] Cells were blocked with Human TruStain and incubated with an antibody cocktail for 30 minutes at 4° C. Anti-human CD45 (2D1) and CD8 (SK1) were used at 1:20 dilution. Anti-human CD3 (OKT3) was used at 1:200 dilution (BioLegend) and Fixable Viability Dye eFluor 455UV at 1:1000 (Ebioscience).

CXCL9 = CXCL9 ELISA of blister fluid and serum; assay type: in vivo, human; settings: Patient 1; following treatment
Description: (§1) The Negative Pressure Instrument Model NP-4 (Electronic Diversities®, Finksburg, MD) was used to induce suction blisters (1 cm in diameter). Blisters formed at a pressure between […] negative pressure and at a constant temperature of 40° C. Once blisters formed, the blister fluid was aspirated […] through the roof using a 1 mL insulin syringe. Cells in the blister fluid were pelleted at 330×g for 10 minutes and prepared for flow cytometry. The supernatant of the blister fluid was stored at −80° C. until analysis by enzyme-linked immunosorbent-assays (ELISA) for chemokines. None of the blisters were hemorrhagic.
(§2) Chemokines were assayed using the Human CXLC9/MIG DuoSet ELISA (DY392) and Human CXCL10/IP-10 DuoSet ELISA (DY266, R&D Systems) per the manufacturer's instructions. Optical densities were measured using a Perkin Elmer EnVision 2102® multilabel reader and analyzed using a 4 parameter […] standard curve.

patients with vitiligo [3] = tested on: patients with vitiligo
CXCL10 = CXCL10 ELISA of blister fluid and serum; assay type: in vivo, human; settings: Patient 1; following treatment
Description: as §1, §2

patients with vitiligo [4] = assay: Adverse event monitoring in the case series (laboratory monitoring, physical exams, review of systems); assay type: in vivo, human
Description: as §3

[5] = Patient 1, earlier course, 5 mg daily, over 5 months
[6] = Patient 2, 5 mg twice daily, after 8 months
[7] = Patient 3, 5 mg twice daily plus nbUVB 150 mJ every other day, after 11 months
[8] = Patient 4, after 14 months of therapy
[9] = Case 1, 5 mg twice daily plus full-body narrowband UV-B (400-500 mJ) twice weekly, after 3 months
[10] = Cases 1 and 2, at last follow-up

C[C@@H]1CCN(C(=O)CC#N)C[C@@H]1N(C)c1ncnc2[nH]ccc12 [tofacitinib, 3-((3R,4R)-4-methyl-3-(methyl(7H-pyrrolo[2,3-d]pyrimidin-4-yl)amino)piperidin-1-yl)-3-oxopropanenitrile]
Responder Status (patients with vitiligo [1]; Patient 1): R | repigmentation at other body sites, including the trunk (patients with vitiligo [1]; [5]): only minimal repigmentation | repigmentation of face, forearms and dorsal hands (patients with vitiligo [1]; [5]): near complete repigmentation | repigmentation on re-treatment (patients with vitiligo [1]; Patient 1, 5 mg daily over 6 months, started in late spring): repigmentation of the face, forearms and dorsal hands, and the upper back and shoulders, but not the lower back or other sun-protected body sites | BSA after to tofacitinib (patients with vitiligo [1]; Patient 1, BSA prior to tofacitinib 10%, treatment duration 10 months): 4% | course after stopping tofacitinib (patients with vitiligo [1]; Patient 1, tofacitinib stopped for 8 months, areas that had previously responded): depigmentation recurred | Responder Status (patients with vitiligo [1]; Patient 2): R | repigmentation of dorsal hands and lower legs (patients with vitiligo [1]; [6]): islands of repigmentation | repigmentation of face, neck (not submental area) and forearms (patients with vitiligo [1]; [6]): near-complete repigmentation | sun-protected body sites (patients with vitiligo [1]; [6]): remained unchanged | repigmentation of face, lateral and posterior neck, and forearms (patients with vitiligo [1]; Patient 2, 5 mg twice daily, over 3 months, sun exposure): partial repigmentation | BSA after to tofacitinib (patients with vitiligo [1]; Patient 2, BSA prior to tofacitinib 28%, treatment duration 8 months): 24% | maintenance of repigmentation (patients with vitiligo [1]; Patient 2, while taking tofacitinib during the winter, minimal sunlight exposure): Repigmentation was maintained | Responder Status (patients with vitiligo [1]; Patient 3): R | repigmentation of all other body sites (patients with vitiligo [1]; [7]): innumerable islands of repigmentation | repigmentation of the back (patients with vitiligo [1]; [7]): > 75% | repigmentation of the face (patients with vitiligo [1]; [7]): complete repigmentation | BSA after to tofacitinib (patients with vitiligo [1]; Patient 3, BSA prior to tofacitinib 39%, treatment duration 11 months, concomitant nbUVB): 24% | Responder Status (patients with vitiligo [1]; Patient 4): R | BSA after to tofacitinib (patients with vitiligo [1]; Patient 4, BSA prior to tofacitinib 10%, treatment duration 14 months): 8% | repigmentation of hands and sun-protected body sites (patients with vitiligo [1]; [8]): neither the hands nor sun-protected body sites, however, showed evidence of repigmentation | repigmentation of the face (patients with vitiligo [1]; [8]): near-complete repigmentation | Responder Status (patients with vitiligo [1]; Patient 5): R | response of vitiligo to tofacitinib alone (patients with vitiligo [1]; Patient 5, 5-10 mg twice daily for 1 year, before nbUVB, hands disguised with makeup): unresponsive | BSA after to tofacitinib (patients with vitiligo [1]; Patient 5, BSA prior to tofacitinib 2%, treatment duration 10 months, islands of repigmentation after 12 nbUVB treatments did not change BSA appreciably): 2%* | repigmentation after adding nbUVB hand phototherapy (patients with vitiligo [1]; Patient 5, concomitant nbUVB, approximately 12 treatments (most recent dose 350 mJ)): islands of repigmentation were apparent | Responder Status (patients with vitiligo [1]; Patient 6): NR | BSA after to tofacitinib (patients with vitiligo [1]; Patient 6, BSA prior to tofacitinib 7%, treatment duration 3 months): 7% | Responder Status (patients with vitiligo [1]; Patient 7): NR | BSA after to tofacitinib (patients with vitiligo [1]; Patient 7, BSA prior to tofacitinib 1%, treatment duration 9 months): 1% | Responder Status (patients with vitiligo [1]; Patient 8): NR | BSA after to tofacitinib (patients with vitiligo [1]; Patient 8, BSA prior to tofacitinib 4%, treatment duration 15 months): 4% | Responder Status (patients with vitiligo [1]; Patient 9): NR | BSA after to tofacitinib (patients with vitiligo [1]; Patient 9, BSA prior to tofacitinib 6%, treatment duration 4 months): 6% | Responder Status (patients with vitiligo [1]; Patient 10): NR | BSA after to tofacitinib (patients with vitiligo [1]; Patient 10, BSA prior to tofacitinib 100%, treatment duration 11 months): 100% | mean decrease of BSA involvement with vitiligo (patients with vitiligo [1]; in 5/10 patients, tofacitinib 5-10 mg QD-BID, average 9.5 months): 5.4 % BSA | overall finding: repigmentation and light exposure (patients with vitiligo [1]; sunlight or nbUVB phototherapy): only led to repigmentation when there was concomitant light exposure | repigmentation (patients with vitiligo [1]; the other 5 of 10 patients, tofacitinib 5-10 mg QD-BID): did not achieve any repigmentation | percentage of melanocyte-specific T cells (HLA pentamer positive) in PBMCs [2]: did not change with tofacitinib treatment, and even increased slightly | CD8+ T cell number in blister fluid (CD8^+ T cells): absolute numbers in each site were reduced | CXCL9 level in blister fluid (CXCL9): undetectable | CXCL9 level in serum (CXCL9): undetectable | repigmentation of neck, chest, forearms and shins (patients with vitiligo [3]; [9]): ≥ 75% | repigmentation of the dorsal hands (patients with vitiligo [3]; [9]): only minimal freckling | repigmentation of the face (patients with vitiligo [3]; [9]): nearly complete repigmentation | repigmentation of the face (patients with vitiligo [3]; Case 2, 5 mg twice daily plus narrowband UV-B (360-500 mJ) 2 to 3 times weekly to only the face, after 3 months): about 50% | facial repigmentation (patients with vitiligo [3]; Case 2, 5 mg twice daily plus narrowband UV-B (360-500 mJ) 2 to 3 times weekly to only the face, after 6 months): about 75% | repigmentation at the other body sites (no UV-B) (patients with vitiligo [3]; Case 2, 5 mg twice daily, narrowband UV-B to only the face): No repigmentation occurred | adverse effects (patients with vitiligo [3]; [10]): no adverse effects | complete blood cell count, liver function tests, serum creatinine, fasting lipids (patients with vitiligo [3]; [10]): no abnormalities | CXCL10 level in blister fluid (CXCL10): undetectable | CXCL10 level in serum (CXCL10): undetectable | serious adverse events (patients with vitiligo [4]; 10 patients): no serious adverse events | adverse events overall (patients with vitiligo [4]; in vivo): mild and infrequent | arthralgias (patients with vitiligo [4]; of 10 patients): one patient reported arthralgias | mild elevations of lipids (patients with vitiligo [4]; of 10 patients): 4 patients | upper respiratory infection (most common side effect) (patients with vitiligo [4]; of 10 patients): 2 patients | weight gain (patients with vitiligo [4]; reported by one patient of 10): 5 pounds

From patent US11957931B2, “Compositions and methods for treating vitiligo” (YALE UNIVERSITY, priority 2017, dated 2024)
